# Laboratory results as given in the supplement of paper PMC10627819.
# Assays:
# Test in all cases: Bliss interaction score (quartile over a dose matrix) (fitness difference); higher = more antagonism (negative = synergy)
# S. pneumoniae D39V = test system: S. pneumoniae D39V
# Method in brief: (§1)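 At entry into stationary phase, OD595 was recorded and divided by the robust mean of the no-drug wells on that plate, with any value above 1 set to 1. This gives the fitness measure used throughout. Single-drug fitness was inferred from combination data, and the Bliss score, observed minus product-expected fitness, is shown as quartiles across technical, biological and donor/recipient replicates.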
# B. subtilis 168 = test system: B. subtilis 168
# Method in brief: as §1
# S. aureus DSM 20231 = test system: S. aureus DSM 20231
# Method in brief: as §1
# S. aureus Newman = test system: S. aureus Newman
# Method in brief: as §1
# 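Further: first quartile when negative (synergy) and third quartile when positive (antagonism).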
SMILES,Bliss interaction score (S. pneumoniae D39V),Bliss interaction score (B. subtilis 168),Bliss interaction score (S. aureus DSM 20231),Bliss interaction score (S. aureus Newman)
N[C@@H]1CONC1=O [CycloserineD] + CC[C@H]1OC(=O)[C@H](C)[C@@H](O[C@H]2C[C@@](C)(OC)[C@@H](O)[C@H](C)O2)[C@H](C)[C@@H](O[C@@H]2O[C@H](C)C[C@H](N(C)C)[C@H]2O)[C@](C)(O)C[C@@H](C)C(=O)[C@H](C)[C@@H](O)[C@]1(C)O [Erythromycin],0.0918,0.077,-0.043,-0.0485
N[C@@H]1CONC1=O [CycloserineD] + CN1C2=CC=CC=C2N=C3C1=CC=CC3=O [Pyocyanin],0.201,-0.0572,0.0676,-0.0546
N[C@@H]1CONC1=O [CycloserineD] + CN(C)C(=O)C(CCN1CCC(O)(c2ccc(Cl)cc2)CC1)(c1ccccc1)c1ccccc1 [Loperamide],0.289,-0.209,0.0915,0.0674
N[C@@H]1CONC1=O [CycloserineD] + CN(C)c1cc(NC(=O)CNC(C)(C)C)c(O)c2c1C[C@H]1C[C@H]3[C@H](N(C)C)C(O)=C(C(N)=O)C(=O)[C@@]3(O)C(O)=C1C2=O [Tigecycline],-0.0514,-0.0502,0.0966,0.0356
N[C@@H]1CONC1=O [CycloserineD] + CN(N=O)C(=O)N[C@@H](C=O)[C@@H](O)[C@H](O)[C@H](O)CO [Streptozotocin],-0.16,0.0463,-0.14,-0.0611
N[C@@H]1CONC1=O [CycloserineD] + CN[C@@H]1[C@H](O)[C@H](NC)[C@H]2O[C@@]3(O)C(=O)C[C@@H](C)O[C@H]3O[C@@H]2[C@H]1O [Spectinomycin],0.11,-0.034,0.0625,0.0506
N[C@@H]1CONC1=O [CycloserineD] + CN[C@@H]1[C@H](O[C@H]2[C@H](O[C@H]3[C@H](O)[C@@H](O)[C@H](N=C(N)N)[C@@H](O)[C@@H]3N=C(N)N)O[C@@H](C)[C@]2(O)C=O)O[C@@H](CO)[C@H](O)[C@H]1O [Streptomycin],-0.108,-0.0511,-0.136,0.0653
N[C@@H]1CONC1=O [CycloserineD] + CN[C@H](CC(C)C)C(=O)N[C@H]1C(=O)N[C@@H](CC(N)=O)C(=O)N[C@H]2C(=O)N[C@H]3C(=O)N[C@H](C(=O)N[C@H](C(=O)O)c4cc(O)cc(O)c4-c4cc3ccc4O)[C@H](O)c3ccc(c(Cl)c3)Oc3cc2cc(c3O[C@@H]2O[C@H](CO)[C@@H](O)[C@H](O)[C@H]2O[C@H]2C[C@](C)(N)[C@H](O)[C@H](C)O2)Oc2ccc(cc2Cl)[C@H]1O [Vancomycin],-0.069,-0.113,0.0736,0.0656
N[C@@H]1CONC1=O [CycloserineD] + CN[C@H](CC(C)C)C(=O)N[C@H]1C(=O)N[C@@H](CC(N)=O)C(=O)N[C@H]2C(=O)N[C@H]3C(=O)N[C@H](C(=O)N[C@H](C(=O)O)c4cc(O)cc(O)c4-c4cc3ccc4O)[C@H](O[C@H]3C[C@](C)(N)[C@@H](O)[C@H](C)O3)c3ccc(c(Cl)c3)Oc3cc2cc(c3O[C@@H]2O[C@H](CO)[C@@H](O)[C@H](O)[C@H]2O[C@H]2C[C@](C)(NCc3ccc(-c4ccc(Cl)cc4)cc3)[C@@H](O)[C@H](C)O2)Oc2ccc(cc2Cl)[C@H]1O [Oritavancin],0.0458,0.0352,-0.0757,0.0585
N[C@@H]1CONC1=O [CycloserineD] + CO[C@@H]1[C@@H](OC(N)=O)[C@@H](O)[C@H](Oc2ccc3c(O)c(NC(=O)c4ccc(O)c(CC=C(C)C)c4)c(=O)oc3c2C)OC1(C)C [Novobiocin],0.187,0.0651,0.0888,0.0912
N[C@@H]1CONC1=O [CycloserineD] + CO[C@@]12[C@H](COC(N)=O)C3=C(C(=O)C(C)=C(N)C3=O)N1C[C@@H]1N[C@@H]12 [MitomycinC],0.108,0.0912,-0.0633,-0.0532
N[C@@H]1CONC1=O [CycloserineD] + CO[C@H]1/C=C/O[C@@]2(C)Oc3c(C)c(O)c4c(O)c(c(/C=N/N5CCN(C)CC5)c(O)c4c3C2=O)NC(=O)/C(C)=C\C=C\[C@H](C)[C@H](O)[C@@H](C)[C@@H](O)[C@@H](C)[C@H](OC(C)=O)[C@@H]1C [Rifampicin],0.163,0.0563,-0.0935,0.0463
N[C@@H]1CONC1=O [CycloserineD] + COc1c(N2C[C@@H]3CCCN[C@@H]3C2)c(F)cc2c(=O)c(C(=O)O)cn(C3CC3)c12 [Moxifloxacin],0.0969,-0.0252,-0.0873,-0.0769
N[C@@H]1CONC1=O [CycloserineD] + COc1cc(Cc2cnc(N)nc2N)cc(OC)c1OC [Trimethoprim],0.0932,0.0782,-0.0585,-0.067
N[C@@H]1CONC1=O [CycloserineD] + COc1ccc(C[C@H](N)C(=O)N[C@H]2[C@@H](O)[C@H](n3cnc4c(N(C)C)ncnc43)O[C@@H]2CO)cc1 [Puromycin],0.142,0.0439,0.0925,0.051
N[C@@H]1CONC1=O [CycloserineD] + COc1cccc2c1C(=O)c1c(O)c3c(c(O)c1C2=O)C[C@@](O)(C(=O)CO)C[C@@H]3O[C@H]1C[C@H](N)[C@H](O)[C@H](C)O1 [Doxorubicin],0.0698,0.0778,0.0418,-0.0446
N[C@@H]1CONC1=O [CycloserineD] + C[C@@H]1O[C@@H]1P(=O)(O)O [Fosfomycin],0.0808,-0.046,-0.0611,-0.033
N[C@@H]1CONC1=O [CycloserineD] + C[C@@H](O)[C@H]1C(=O)N2C(C(=O)O)=C(SCCNC=N)C[C@H]12 [Imipenem],-0.235,0.0545,0.0715,-0.0358
N[C@@H]1CONC1=O [CycloserineD] + C[C@H]1COc2c(N3CCN(C)CC3)c(F)cc3c(=O)c(C(=O)O)cn1c23 [Levofloxacin],0.0882,0.0199,-0.12,-0.131

SMILES,Bliss interaction score (S. pneumoniae D39V),Bliss interaction score (B. subtilis 168),Bliss interaction score (S. aureus DSM 20231),Bliss interaction score (S. aureus Newman)
N[C@@H]1CONC1=O [CycloserineD] + C[C@H]1c2cccc(O)c2C(=O)C2=C(O)[C@]3(O)C(=O)C(C(N)=O)=C(O)[C@@H](N(C)C)[C@@H]3[C@@H](O)[C@@H]21 [Doxycycline],0.243,0.0526,-0.116,-0.0254
N[C@@H]1CONC1=O [CycloserineD] + C[n+]1ccc(-c2cc[n+](C)cc2)cc1 [Paraquat],-0.101,-0.036,0.0783,0.0488
N[C@@H]1CONC1=O [CycloserineD] + Cc1cc(NS(=O)(=O)c2ccc(N)cc2)no1 [Sulfamethoxazol],-0.188,-0.0418,0.0715,0.0449
N[C@@H]1CONC1=O [CycloserineD] + Cc1ncc([N+](=O)[O-])n1CCO [Metronidazole],-0.0766,-0.0606,0.0317,0.0557
N[C@@H]1CONC1=O [CycloserineD] + Cc1onc(-c2ccccc2)c1C(=O)N[C@@H]1C(=O)N2[C@@H]1SC(C)(C)[C@@H]2C(=O)O [Oxacillin],-0.17,0.0509,0.0729,-0.0567
N[C@@H]1CONC1=O [CycloserineD] + Clc1ccc(COC(Cn2ccnc2)c2ccc(Cl)cc2Cl)c(Cl)c1 [Miconazole],-0.0729,0.0883,0.0763,-0.0328
N[C@@H]1CONC1=O [CycloserineD] + Cn1nnc(-c2ccc(-c3ccc(N4C[C@H](CO)OC4=O)cc3F)cn2)n1 [Tedizolid],0.126,0.0364,-0.101,0.0593
N[C@@H]1CONC1=O [CycloserineD] + O=C1CN(/N=C/c2ccc([N+](=O)[O-])o2)C(=O)N1 [Nitrofurantoin],0.197,0.173,0.0785,-0.0425
N[C@@H]1CONC1=O [CycloserineD] + O=C(O[C@@H]1Cc2c(O)cc(O)cc2O[C@@H]1c1cc(O)c(O)c(O)c1)c1cc(O)c(O)c(O)c1 [EGCG],-0.0875,-0.114,-0.107,0.0286
N[C@@H]1CONC1=O [CycloserineD] + Oc1cc(Cl)ccc1Oc1ccc(Cl)cc1Cl [Triclosan],-0.11,0.0246,0.0965,0.0356
O=C(O[C@@H]1Cc2c(O)cc(O)cc2O[C@@H]1c1cc(O)c(O)c(O)c1)c1cc(O)c(O)c(O)c1 [EGCG] + CC1(C)S[C@@H]2[C@H](NC(=O)Cc3ccccc3)C(=O)N2[C@H]1C(=O)O [PenicillinG],0.108,0.0517,0.059,0.0531
O=C(O[C@@H]1Cc2c(O)cc(O)cc2O[C@@H]1c1cc(O)c(O)c(O)c1)c1cc(O)c(O)c(O)c1 [EGCG] + CC(=O)O[C@H]1C[C@@]2(C)[C@@H](C[C@@H](O)[C@H]3[C@@]4(C)CC[C@@H](O)[C@@H](C)[C@@H]4CC[C@@]32C)/C1=C(\CCC=C(C)C)C(=O)O [Fusidic acid],-0.143,0.0767,-0.019,-0.0283
O=C(O[C@@H]1Cc2c(O)cc(O)cc2O[C@@H]1c1cc(O)c(O)c(O)c1)c1cc(O)c(O)c(O)c1 [EGCG] + CC[C@H]1OC(=O)[C@H](C)C(=O)[C@H](C)[C@@H](O[C@@H]2O[C@H](C)C[C@H](N(C)C)[C@H]2O)[C@](C)(OC)C[C@@H](C)C(=O)[C@H](C)[C@H]2N(CCCCn3cnc(-c4cccnc4)c3)C(=O)O[C@]12C [Telithromycin],0.0892,0.0403,-0.079,0.0859
O=C(O[C@@H]1Cc2c(O)cc(O)cc2O[C@@H]1c1cc(O)c(O)c(O)c1)c1cc(O)c(O)c(O)c1 [EGCG] + CC[C@H]1OC(=O)[C@H](C)[C@@H](O[C@H]2C[C@@](C)(OC)[C@@H](O)[C@H](C)O2)[C@H](C)[C@@H](O[C@@H]2O[C@H](C)C[C@H](N(C)C)[C@H]2O)[C@](C)(O)C[C@@H](C)C(=O)[C@H](C)[C@@H](O)[C@]1(C)O [Erythromycin],0.0597,0.0527,-0.0558,-0.0582
O=C(O[C@@H]1Cc2c(O)cc(O)cc2O[C@@H]1c1cc(O)c(O)c(O)c1)c1cc(O)c(O)c(O)c1 [EGCG] + CN[C@H](CC(C)C)C(=O)N[C@H]1C(=O)N[C@@H](CC(N)=O)C(=O)N[C@H]2C(=O)N[C@H]3C(=O)N[C@H](C(=O)N[C@H](C(=O)O)c4cc(O)cc(O)c4-c4cc3ccc4O)[C@H](O[C@H]3C[C@](C)(N)[C@@H](O)[C@H](C)O3)c3ccc(c(Cl)c3)Oc3cc2cc(c3O[C@@H]2O[C@H](CO)[C@@H](O)[C@H](O)[C@H]2O[C@H]2C[C@](C)(NCc3ccc(-c4ccc(Cl)cc4)cc3)[C@@H](O)[C@H](C)O2)Oc2ccc(cc2Cl)[C@H]1O [Oritavancin],0.0545,0.0249,0.176,0.318
O=C(O[C@@H]1Cc2c(O)cc(O)cc2O[C@@H]1c1cc(O)c(O)c(O)c1)c1cc(O)c(O)c(O)c1 [EGCG] + CO[C@@]12[C@H](COC(N)=O)C3=C(C(=O)C(C)=C(N)C3=O)N1C[C@@H]1N[C@@H]12 [MitomycinC],0.0987,-0.0639,-0.0345,0.051
O=C(O[C@@H]1Cc2c(O)cc(O)cc2O[C@@H]1c1cc(O)c(O)c(O)c1)c1cc(O)c(O)c(O)c1 [EGCG] + Oc1cc(Cl)ccc1Oc1ccc(Cl)cc1Cl [Triclosan],-0.0791,-0.0336,0.0962,0.0222
CC(=O)O[C@H]1C[C@@]2(C)[C@@H](C[C@@H](O)[C@H]3[C@@]4(C)CC[C@@H](O)[C@@H](C)[C@@H]4CC[C@@]32C)/C1=C(\CCC=C(C)C)C(=O)O [Fusidic acid] + C/C(=C\C(=O)OCCCCCCCCC(=O)O)C[C@@H]1OC[C@H](C[C@@H]2O[C@H]2[C@@H](C)[C@H](C)O)[C@@H](O)[C@H]1O [Pseudomonic acid],0.1,-0.0331,0.0339,0.031
CC(=O)O[C@H]1C[C@@]2(C)[C@@H](C[C@@H](O)[C@H]3[C@@]4(C)CC[C@@H](O)[C@@H](C)[C@@H]4CC[C@@]32C)/C1=C(\CCC=C(C)C)C(=O)O [Fusidic acid] + CC1(C)S[C@@H]2[C@H](NC(=O)Cc3ccccc3)C(=O)N2[C@H]1C(=O)O [PenicillinG],0.0666,0.0421,0.0382,-0.0384
